The values below come from patent US6465184B1, “Isolated nucleic acid molecule encoding peptides which form complexes with MHC molecules HLA-Cw*1601 and uses thereof” (Ludwig Institute for Cancer Research, priority 1993, dated 2002).

The subject of experiment [1] is lymphoblastoid cell line MZ2-EBV. As to the kind of experiment: peptide sensitization chromium release assay: lysis by CTL 82/82 of peptide-incubated target cells. Type of experiment: cell-based, human. As to conditions: chromium release after 4 hours; for sensitization of target cells to lysis by CTL 82/82: lymphoblastoid cell line from patient MZ2, various peptide concentrations. On the procedure:
(§1) The lysis assay employed was a chromium release assay following Herin et al., Int. J. Cancer, 39:390-396 (1987), which is incorporated herein by reference. The assay, however, is described herein. The target melanoma cells were grown in vitro, and then resuspended at 4×10^7 cells/ml in DMEM, supplemented with DMEM with 10 mM HEPES and 50% FCS, and incubated for 60 minutes at 37° C. with 200 μCi/ml of Na(^51Cr)O4. Labelled cells were washed three times with DMEM, supplemented with 10 mM HEPES. These were then resuspended in DMEM supplemented with 10 mM HEPES and 10% FCS, after which 100 μl aliquots containing 10^3 cells, were distributed into 96 well microplates. Samples of PBLs were added in 100 μl of the same medium, and assays were carried out in duplicate. Plates were centrifuged for 4 minutes at 100 g, and incubated for four hours at 37° C. in a 8% CO2 atmosphere.
(§2) Plates were centrifuged again, and 100 μl aliquots of supernatant were collected and counted. Percentage of ^51Cr release was calculated as follows: [formula]
where ER is observed, experimental ^51Cr release, SR is spontaneous release measured by incubating 10^3 labeled cells in 200 μl of medium alone, and MR is maximum release, obtained by adding 100 μl 0.3% Triton X-100 to target cells.
Several synthetic peptides were prepared on this basis. Peptides were synthesized on solid phase using F-moc for transient NH2-terminal protection as described by Atherton et al., J. Chem. Soc. Lond. Perkin Trans., 1:538-546 (1981) and characterized by mass spectrometry. All peptides were >90% pure as indicated by analytical HPLC. Lyophilized peptides were dissolved at 20 mg/ml in DMSO, diluted at 2 mg/ml in 10 mM acetic acid and stored at […]. Peptides were tested in a CTL stimulation assay with COS-7 cells transfected by HLA-Cw*1601 and incubated with the peptides. They were also tested by chromium release assay as previously described (Boon et al., J. Exp. Med., 152:1184-1193 (1980)). In this peptide sensitization assay, target cells were ^51Cr-labelled for one hour at 37° C. and washed extensively. 1000 target cells were then incubated in 96-well microplates in the presence of various concentrations of peptide for 30 minutes at 37° C. before CTL 82/82 cells were added. Chromium release was measured after 4 hours at 37° C.
The final concentration of peptides during the incubation of the target cells with the CTL is indicated. The arrow indicates the percentage of lysis of MZ2-MEL.43 cells. […] P1.HTR cells were transfected with HLA-Cw*1601 and were incubated with nonapeptide AARAVFLAL (SEQ ID NO: 3). […] Lysis of chromium-labelled cells was tested after 4 hours.

In experiment [2] the test system is P1.HTR cells transfected with HLA-Cw*1601. Briefly: chromium release assay: lysis by CTL clone 82/82 of P1.HTR transfected with HLA-Cw*1601 and incubated with peptide. The class given is cell-based, mouse. As to conditions: P1.HTR transfected with HLA-Cw*1601, 1 μM peptide, lysis tested after 4 hours. On the procedure: as §1, §2
where ER is observed, experimental ^51Cr release, SR is spontaneous release measured by incubating 10^3 labeled cells in 200 μl of medium alone, and MR is maximum release, obtained by adding 100 μl 0.3% Triton X-100 to target cells. […]
Several synthetic peptides were prepared on this basis. […] Chromium release was measured after 4 hours at 37° C. […]

Experiment [3] has as its system cells transfected with HLA-Cw*1601. As to the kind of experiment: CTL stimulation assay (TNF production) with HLA-Cw*1601-transfected cells incubated with peptide. Type of experiment: cell-based. As to conditions: six CTL clones from patient MZ2; cells transfected with HLA-Cw*1601 and incubated with nonapeptide. The procedure:
Cotransfectants were tested after 24 or 48 hours for their ability to stimulate the production of tumor necrosis factor (TNF) by CTLs (Traversari et al., Immunogenetics, 235:145-152 (1992)). 1500 CTLs were added in 100 μl of Iscove's medium (Gibco BRL) containing 10% human serum and 20 U/ml r-hu-IL-2 to microwells containing target cells. After 24 hours, the supernatant was collected and its TNF content was determined by testing its cytotoxic effect on cells of WEHI-164 clone 13 (Espevik et al., J. Immunol. Methods, 95:99-105 (1986)) in an MTT colorimetric assay (Hansen et al., J. Cancer, 39:390-396 (1989) and Traversari et al., supra).
Several synthetic peptides were prepared on this basis. Peptides were synthesized on solid phase using F-moc for transient NH2-terminal protection as described by Atherton et al., J. Chem. Soc. Lond. […] Chromium release was measured after 4 hours at 37° C.
From two MLTCs set up with different blood samples of patient MZ2, six CTL clones that recognized the BAGE/HLA-Cw*1601 antigen were derived. […] Vα and Vβ expression were determined as follows: Total RNA from the different CTL clones was prepared by using RNAzol*B (Cinna/Biotecx, Friendswood, Tex.). […] Specificity of TCR Vα and Vβ PCR amplification was assessed by Southern blotting and hybridization with ^32P-labelled Cα or Cβ oligonucleotides internal to the ones used for amplification.

As to “AARAVFLAL [Ala Ala Arg Ala Val Phe Leu Ala Leu, BAGE-encoded nonapeptide (amino acids 2-10) recognized in association with HLA-Cw*1601 by CTL 82/82]”, the EC50 in experiment [1] (MZ2-EBV targets incubated 30 minutes with peptide, CTL 82/82 added, read-out: peptide concentration giving half-maximal lysis) turned out to be 30 nM. Moreover, in experiment [1], the “sensitization of target cells to lysis by CTL 82/82” value (“sensitization of target cells” below) is given as “Sensitization of a lymphoblastoid cell line from patient MZ2 to lysis by CTL 82/82 was observed”. Further, the “lysis by CTL 82/82 of peptide-incubated transfected cells” value in experiment [2] is “lysed by CTL 82/82”. The “response of CTL clones recognizing the BAGE/HLA-Cw*1601 antigen” value in experiment [3] is “responded”.
Take MAARAVFLA: the “sensitization of target cells” value in experiment [1] is “not able to sensitize target cells to lysis”.
On to ARAVFLALF, for which the “sensitization of target cells” value in experiment [1] is reported as “not able to sensitize target cells to lysis”.
